Laboratory results: PubChem BioAssay (NCI)
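All cell lines were grown in 96-well plates and treated with compound for 48 hours. GI50: concentration for 50% inhibition of growth. The concentration for full growth arrest is given as TGI.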

Experiments:
Test in all cases: inhibition of tumour cell growth, NCI panel, 48 h
[1] = test system: OVCAR-8 ovarian
[2] = test system: HL-60(TB) leukemia
[3] = test system: CAKI-1 renal
[4] = test system: M14 melanoma
[5] = test system: SK-MEL-2 melanoma
[6] = test system: A549 NSCLC
[7] = test system: SNB-19 CNS
[8] = test system: K-562 leukemia
[9] = test system: OVCAR-5 ovarian
[10] = test system: COLO 205 colon

SMILES | TGI [1] | TGI [2] | TGI [3] | TGI [4] | TGI [5] | TGI [6] | TGI [7] | TGI [8] | TGI [9] | TGI [10] | GI50 [1] | GI50 [2] | GI50 [3] | GI50 [4] | GI50 [5] | GI50 [6] | GI50 [7] | GI50 [8] | GI50 [9] | GI50 [10]
CCOP(=O)(OCC)C(C(=O)OC)C(=O)C(=O)Nc1ccc(Cl)cc1Cl (configuration not stated) | > 100 µM | > 100 µM | > 100 µM | > 100 µM | > 100 µM | > 100 µM | > 100 µM | > 100 µM | > 100 µM | > 100 µM | – | – | – | – | – | – | – | – | – | –
Cc1cc2c(c(C(N)=O)c1C)-c1ccccc1C2=O | > 100 µM | > 100 µM | – | > 100 µM | > 100 µM | > 100 µM | > 100 µM | > 100 µM | > 100 µM | > 100 µM | – | – | – | – | – | – | – | – | – | –
CC(C)(C)[Si](C)(C)OC1[C@@H](CNC(=O)NC(=O)CCl)O[C@@H](n2cnc3c(N)ncnc32)[C@H]1O[Si](C)(C)C(C)(C)C (some centres not stated) | 2.85 µM | 1.87 µM | 3.89 µM | 2.49 µM | 2.01 µM | 7.72 µM | 9.46 µM | 3.41 µM | 1.62 µM | 3.55 µM | 0.812 µM | 0.893 µM | 1.33 µM | 1.07 µM | 1.04 µM | 2.1 µM | 2.43 µM | 1.23 µM | 0.818 µM | 1.45 µM
Nc1cc(Br)c(-c2nnc(CCC(=O)c3nc4ccccc4[nH]3)o2)c(Br)c1 | > 100 µM | > 100 µM | > 100 µM | 55.5 µM | > 100 µM | > 100 µM | > 100 µM | > 100 µM | > 100 µM | 30.8 µM | 21.6 µM | 3.44 µM | 19.8 µM | 17.5 µM | 4.3 µM | 27.6 µM | 20.1 µM | 2.89 µM | 29.4 µM | 11.8 µM
COC(=O)/C([Se]c1c(C)cc(C)cc1C)=C(/[Se]c1c(C)cc(C)cc1C)C(=O)OC | > 100 µM | > 100 µM | > 100 µM | > 100 µM | > 100 µM | > 100 µM | > 100 µM | > 100 µM | > 100 µM | > 100 µM | – | – | – | – | – | – | – | – | – | –
COc1cc2c(Nc3cc(Cl)c(OC)c(Cl)c3)c(C#N)cnc2cc1OCCCN1CCN(C)CC1 | 4.33 µM | 4.03 µM | 15.1 µM | 2.57 µM | 2.9 µM | 4.12 µM | 14.9 µM | 8.41 µM | 11.7 µM | 3.79 µM | 1.24 µM | 1.78 µM | 0.606 µM | 1.1 µM | 1.32 µM | 1.5 µM | 4.57 µM | 0.574 µM | 1.56 µM | 2.02 µM
COc1ccc(-c2nccn2-c2ccc(OC)cc2)cc1 | 67.5 µM | 34.2 µM | > 69.5 µM | 56.7 µM | > 73.5 µM | > 80.5 µM | > 100 µM | 61.4 µM | > 100 µM | > 100 µM | 23.9 µM | 14.2 µM | 22.9 µM | 20.5 µM | 25.3 µM | 25.1 µM | 41.8 µM | 6.43 µM | 25 µM | 28.3 µM
CC(=O)N1CCN(c2ccc(OCC3COC(Cn4ccnc4)(c4ccc(Cl)cc4Cl)O3)cc2)CC1 (configuration not stated) | > 100 µM | > 100 µM | > 100 µM | 52.1 µM | 39.1 µM | > 100 µM | – | > 100 µM | > 100 µM | 40.8 µM | – | – | – | – | – | – | – | – | – | –
CCCC(=O)C1=C(O)C(Cc2c(O)c(C)c(O)c(C(=O)CCC)c2O)=C(O)C(C)(C)C1=O | > 50 µM | – | > 50 µM | > 50 µM | > 50 µM | > 50 µM | > 50 µM | 48 µM | 33.9 µM | > 50 µM | – | – | – | – | – | – | – | – | – | –
COc1ccc(CC2c3c(cc(OC)c(OC)c3OC)CCN2C)cc1OC (configuration not stated) | > 100 µM | – | > 100 µM | > 100 µM | > 100 µM | > 100 µM | > 100 µM | > 100 µM | > 100 µM | – | – | – | – | – | – | – | – | – | – | –
Cc1[nH]c2ccccc2c1C1Cc2ccccc2N1C(=O)C#Cc1ccc([N+](=O)[O-])cc1 (configuration not stated) | > 100 µM | > 100 µM | – | > 100 µM | – | > 100 µM | > 100 µM | > 100 µM | > 100 µM | – | – | – | – | – | – | – | – | – | – | –
O=C(N/C(=C\c1ccc([N+](=O)[O-])cc1)c1nc2ccccc2[nH]1)c1ccccc1 | > 100 µM | > 100 µM | – | > 100 µM | > 100 µM | > 100 µM | > 100 µM | > 100 µM | > 100 µM | > 100 µM | – | – | – | – | – | – | – | – | – | –
COc1cc2c(cc1O)CCN[C@]21CS[C@@H]2c3c(OC(C)=O)c(C)c4c(c3[C@H](COC1=O)N1[C@@H]2[C@H]2c3c(cc(C)c(OC)c3O)C[C@@H]([C@@H]1O)N2C)OCO4 | 4.83 µM | 0.0114 µM | 1.36 µM | 0.00383 µM | 0.00511 µM | 2.83 µM | 1.39 µM | 7.98 µM | 1.19 µM | – | – | – | – | – | 0.0031 µM | 0.00319 µM | – | – | – | –
O=C1c2ccccc2-c2c1c1ccccc1c(=O)n2CCN1CCNCC1 | 3.59 µM | – | 2.9 µM | – | 36.2 µM | 3.6 µM | 4.9 µM | 5.05 µM | 6.92 µM | 18.2 µM | 0.968 µM | – | 0.465 µM | – | 12.7 µM | 0.576 µM | 1.32 µM | 0.902 µM | 1.55 µM | 5.4 µM
CC(C)=C1CCC(CN(C)C)C1=O (configuration not stated) | 49.4 µM | 15.6 µM | – | 28.4 µM | 78.4 µM | > 100 µM | > 100 µM | 31 µM | > 100 µM | 63.4 µM | – | – | – | – | – | – | – | – | – | –
CC1(C)CN=C(NN=C(/C=C/c2ccc(C(F)(F)F)cc2)/C=C/c2ccc(C(F)(F)F)cc2)NC1 | 3.2 µM | 4.35 µM | 2.37 µM | 3.5 µM | – | 2.91 µM | 3.18 µM | – | 2.68 µM | 2.85 µM | 1.67 µM | 2.03 µM | 1.09 µM | 1.78 µM | – | 1.36 µM | 1.5 µM | – | 1.32 µM | 1.35 µM
COc1cc(/C=C2\[C@H]3c4c(c(OC)c(C)c(OC)c4OC)CC(C(=O)N2Cc2ccccc2)N3C)c(OC)c(C)c1OC | > 100 µM | 36 µM | 73.6 µM | 36 µM | – | > 100 µM | 73.8 µM | 62.1 µM | 71.8 µM | 32.5 µM | – | – | – | – | – | – | – | – | – | –
